This note sets out measurements from patent US6841535B2, “Peptide-mediated transfection agents and methods of use” (Active Motif, priority 2000, dated 2005).

Holding throughout (assay type): cell-based
Assay [1] has as its system human HS68, murine NIH 3T3 fibroblasts or cos cells. Kind of assay: Cellular localization of Pep-2. The following applies: standard cell culture conditions; same at 4° C. or with okadaic acid. The text has this:
The rationale in the design of the novel peptide vector, Pep-2, for efficient protein delivery into cells was to satisfy two major requirements: the ability to cross cell membranes and high affinity for protein sequences. To this aim, we elaborated a 21 residue peptide, designated Pep-2 ([…]-cya; SEQ ID NO:7), consisting of three domains: (1) a hydrophobic Trp-rich motif containing five Trp-residues (KETWWETWWTEW (SEQ ID NO:32)), required for efficient targeting to the cell membrane and for forming hydrophobic interactions with proteins, (2) a hydrophilic Lys-rich domain (KKKRKV (SEQ ID NO:33)) derived from the NLS of SV40 large T antigen, required to improve intracellular delivery and solubility of the peptide vector, and (3) a spacer domain (Ser-Gln-Pro), separating the two domains mentioned above, containing a Pro residue, which improves the flexibility and the integrity of both the hydrophobic and the hydrophilic domains. Peptides were acetylated at their N-terminus and synthesized with a cysteamine group at their C-terminus, so as to enable coupling of fluorescent probes (for example, FITC), useful for cellular localization of the peptide. We first investigated the ability of Pep-2 to penetrate into cells and characterized its subcellular localization. […]

Assay [2] concerns human fibroblastic cell line (HS-68) and Cos-7. Nature of the assay: Pep-2-mediated delivery of FITC-labeled peptides into cells. On the procedure:
(A) Pep-2-mediated delivery of Pep-A at 37 degrees C., (B) Pep-2-mediated delivery of Pep-B at 37 degrees C., (C) Pep-2-mediated delivery of Pep-A at 4 degrees C., (D) concentration dependence of Pep-2-mediated delivery of Pep-A. The efficiency of transfection was determined by counting fluorescent cells. Experiments were performed in the presence (dark bars) or absence (open bars) of serum and at 4 degrees C. (dashed bars).
We next evaluated the ability of Pep-2 to deliver peptides and LMW and HMW proteins into a human fibroblastic cell line (HS-68) and Cos-7. FITC-labeled Pep-A (51-mer) and Pep-B (32-mer) at a concentration of 5 10^−8 M were incubated with different concentrations of Pep-2 from 5 10^−8 M (ratio 1/1) to 2 10^−6 M (ratio 40/1), in serum-free cell culture medium for 30 minutes at 37° C. Cultured cells 0.5 to 1×10^6/35 mm^2 were then overlaid with the preformed Pep-2/peptide complexes for 30 minutes in the presence or absence of FCS. Complexes were formed prior to addition of FCS to avoid interactions between Pep-2 and serum proteins. Following this transfection step, fresh DMEM supplemented with serum was added to the cells for another 30 minutes, after which cells were extensively washed, and examined by fluorescence microscopy. […] Finally, we evaluated the effect of serum in the cell culture medium on the efficiency of peptide transfection.

The test system is the same in assay [3]. Kind of assay: Pep-2-mediated delivery of GFP and β-Gal proteins into cells. On the procedure: The efficiency of transfection was determined by counting fluorescent cells or blue stained cells. (A) Control of beta gal in the absence of Pep-2, (B) Pep-2 delivery of beta gal at 37 degrees C., (C) Pep-2 delivery of beta gal at 4 degrees C., (D) Pep-2 delivery of GFP at 37 degrees C. (E) concentration dependent Pep-2 delivery of GFP. Experiments were performed in the absence (open bars) or presence (dark bars) of serum.
We next evaluated the ability of Pep-2 to deliver peptides and LMW and HMW proteins into a human fibroblastic cell line (HS-68) and Cos-7. FITC-labeled Pep-A (51-mer) and Pep-B (32-mer) at a concentration of 5 10^−8 M were incubated with different concentrations of Pep-2 from 5 10^−8 M (ratio 1/1) to 2 10^−6 M (ratio 40/1), in serum-free cell culture medium for 30 minutes at 37° C. Cultured cells 0.5 to 1×10^6/35 mm^2 were then overlaid with the preformed Pep-2/peptide complexes for 30 minutes in the presence or absence of FCS. Complexes were formed prior to addition of FCS to avoid interactions between Pep-2 and serum proteins. Following this transfection step, fresh DMEM supplemented with serum was added to the cells for another 30 minutes, after which cells were extensively washed, and examined by fluorescence microscopy. […] Conversely, we observed a large decrease in the efficiency of transfection at a ratio greater than 30/1, which may be explained by either precipitation or aggregation of Pep-2/peptide complexes to the cell membrane. […] Finally, we evaluated the effect of serum in the cell culture medium on the efficiency of peptide transfection.
To investigate protein delivery we chose to monitor cell delivery of three very different types of proteins: 30 kDa GFP, 119 kDa β-Gal, and specific antibodies. […] Cells were then extensively washed prior to observation and the efficiency of protein delivery was determined by counting fluorescent cells or by monitoring enzymatic β-galactosidase activity by X-Gal staining. […]

The test system of assay [4] is HS-68 and NIH 3T3 cell lines. Nature of the assay: Drug delivery by vector peptides (ANS and Bis-ANS). To be noted: transfection of ANS and Bis-ANS; incubated with peptide at a molar ratio of 1:20; 1 h. On the procedure:
For investigation of drug delivery, we used the naphthalene derivatives ANS and Bis-ANS, which have intrinsic fluorescence. The drugs was incubated with peptide at a molar ratio of 1:20, followed by overlay of the complex onto cultured cells. This was followed by incubation for 1 h. Then cells were extensively washed and observed by microscopy.
(§1) The results of the experiments testing the transfection properties of the peptides are presented as a table in which the sequences are aligned for optimal comparison: […]

For assay [5], the system named is HS-68 and NIH 3T3 cell lines. Kind of assay: Protein delivery by vector peptides (GFP). To be noted: transfection of GFP; incubated with peptide at a molar ratio of 1:20; 1 h. On the procedure:
(§2) We evaluated the ability of peptides designed according to principles described herein, as well as variants thereof, to deliver peptides and proteins into HS-68 and NIH 3T3 cell lines. Peptide delivery was performed with a 32 mer peptide (peptide B), and in some cases a […] peptide (peptide A). The peptides were fluorescently labeled. Peptides (5.0×10^−8M or 5.0×10^−7M) were incubated with one micromolar vector peptide in cell culture medium in the absence of serum for 30 min. Cultured cells (0.5 to 1.0×10^6) were then overlaid with the preformed peptide/vector peptide complexes in 500 μL DMEM for one hour in the presence or absence of FCS. Complexes were formed prior to addition of FCS to avoid interactions between ep-vector and serum proteins. Following this transfection step, fresh DMEM supplemented with serum was added for another hour. Then cells were extensively washed, fixed and analyzed by fluorescence microscopy.
To investigate protein delivery we tested the delivery into cells of the fluorescent protein GFP. The protein was incubated with peptide at a molar ratio of 1:20, followed by overlay of the complex onto cultured cells. This was followed by incubation for 1 h. Then cells were extensively washed and fixed with formalin before observation.
as §1

Assay [6] concerns HS-68 and NIH 3T3 cell lines. Kind of assay: Peptide delivery by vector peptides (fluorescently labeled peptide B / peptide A). The following applies: transfection of fluorescently labeled peptide; one micromolar vector peptide; 1 h. On the procedure:
as §2, §1

In a further assay the test system is Jurkat T and WI 38 cells. Kind of assay: Pep-2 delivery of p27(kip1), cell cycle arrest in G1 (FACS, BrDu). To be noted: Pep-2 alone. On the procedure:
The number of cells in the G1 phase was determined by BrDU incorporation.
The number of cells in the G1 phase was determined by FACs analysis.
p27(kip1) was expressed in E coli, and purified as a his-tagged protein. Pep-2/p27kip1 complexes were formed in PBS (500 μl of DMEM containing 50 nM of protein and 0.1 μM of Pep-2) and incubated for 30 min at 37° C. Jurkat T and WI 38 cells grown to 75% confluency were then overlaid with these preformed complexes. After 1 hr incubation at 37° C., fresh DMEM supplemented with 10% foetal calf serum was added to the cells, without removing the overlay of Pep-2/p27^Kip1, and cells were returned to the incubator for another 30 h. Experiments were performed on both non-synchronized and synchronized cells. The number of cells arrested in G1 was determined both by FACS analysis and BrDu incorporation.

Regarding KETWWETWWTEWSQPKKKRKV [Pep-2], the subcellular localization entry in assay [1] is recorded as “nucleus”. Further, the “effect of serum (FCS 10%) on efficiency of peptide delivery” value in assay [2] is on record as “not affected”. Further, in assay [2] (Pep-2/Pep-A molar ratio of 20/1), the “cells with internalized fluorescent peptide localized to the nucleus” value is listed as “more than 90%”. In addition, the “effect of 10% FCS on efficiency of protein delivery” value in assay [3] is “not affected”. For the same sequence, in assay [3] (37 degrees C.), the “cells containing fluorescent GFP staining in their cytoplasm” value was “more than 80%”. Besides, in assay [3] (X-Gal staining), the “cells exhibiting strong and uniform β-Gal activity” value is reported as “All cells”. For the same sequence, the Drug in assay [4] came out at 5%. For the same sequence, the Pro in assay [5] is listed as 5%. Further, the Pep in assay [6] was 5%. In the assay on Jurkat T and WI 38 cells, the “effect on cell cycle progression” value is on record as “no effect on cell cycle progression”.
